Measured values taken from ChEMBL document CHEMBL5537183, “Discovery, Optimization, and Biological Evaluation of Arylpyridones as Cbl-b Inhibitors” (J Med Chem, 2024).

Columns and labels:
[1] = target: T1, E3 ubiquitin-protein ligase CBL-B (Homo sapiens, UniProt Q13191); experiment: Inhibition of biotinylated recombinant Cbl-b (36 to 427 residues)(unknown origin) expressed in Escherichia coli BL21(DE3) Tuner cells using a FAM-labeled probe by TR-FRET assay
[2] = target: E3 ubiquitin-protein ligase CBL (Homo sapiens, UniProt P22681); experiment: Inhibition of cCbl (unknown origin) by TR-FRET assay
[3] = Lipophilicity, logD of compound at pH 7.4; type: physicochemical; conditions: buffer
[4] = Stability in human liver microsome assessed as intrinsic clearance; type: ADME; conditions: liver microsomes, read-out: CLH
[5] = Induction of IL-2 production in human T cells; type: functional, cell-based, T-cell
[6] = Clearance in rat hepatocytes assessed as measured per million cells at 0.1 to 1 uM measured for 120 mins by LC-MS/MS analysis; type: ADME, cell-based, Hepatocyte; conditions: dose 0.1-1 µM
[7] = Clearance in human hepatocytes assessed as measured per million cells at 0.1 to 1 uM measured for 120 mins by LC-MS/MS analysis; type: ADME, cell-based, Hepatocyte; conditions: dose 0.1-1 µM, read-out: CLH
[8] = target: T1, E3 ubiquitin-protein ligase CBL-B; experiment: Inhibition of biotinylated recombinant Cbl-b (36 to 427 residues)(unknown origin) expressed in Escherichia coli BL21(DE3) Tuner cells assessed as decrease in Cbl-b auto-ubiquitination incubated for 60 mins in presence of Ub-FITC/ATP by TR-FRET assay
[9] = target: T1, E3 ubiquitin-protein ligase CBL-B; experiment: Inhibition of biotinylated recombinant Cbl-b (36 to 427 residues)(unknown origin) expressed in Escherichia coli BL21(DE3) Tuner cells assessed as decrease in ZAP70 ubiquitination incubated for 60 mins in presence of Ub-FITC/ATP by TR-FRET assay
[10] = Clearance in CD1 mouse at 0.5 mg/kg, iv measured for 24 hrs by LC-MS/MS analysis; type: ADME, organism-based; conditions: in vivo
[11] = Volume of distribution at steady state in CD1 mouse at 0.5 mg/kg, iv measured for 24 hrs by LC-MS/MS analysis; type: ADME, organism-based; conditions: in vivo, read-out: Vdss
[12] = Half life in CD1 mouse at 0.5 mg/kg, iv measured for 24 hrs by LC-MS/MS analysis; type: ADME, organism-based; conditions: in vivo
[13] = Cmax in CD1 mouse at 1 mg/kg, po measured for 24 hrs by LC-MS/MS analysis; type: ADME, organism-based; conditions: in vivo
[14] = Tmax in CD1 mouse at 1 mg/kg, po measured for 24 hrs by LC-MS/MS analysis; type: ADME, organism-based; conditions: in vivo
[15] = AUC (infinity) in CD1 mouse at 1 mg/kg, po measured for 24 hrs by LC-MS/MS analysis; type: ADME, organism-based; conditions: in vivo
[16] = Oral bioavailability in CD1 mouse at 1 mg/kg measured for 24 hrs by LC-MS/MS analysis; type: ADME, organism-based; conditions: in vivo
[17] = Clearance in Wistar Han rat at 0.5 mg/kg, iv measured for 24 hrs by LC-MS/MS analysis; type: ADME, organism-based; conditions: in vivo
[18] = Volume of distribution at steady state in Wistar Han rat at 0.5 mg/kg, iv measured for 24 hrs by LC-MS/MS analysis; type: ADME, organism-based; conditions: in vivo, read-out: Vdss
[19] = Half life in Wistar Han rat at 0.5 mg/kg, iv measured for 24 hrs by LC-MS/MS analysis; type: ADME, organism-based; conditions: in vivo
[20] = Cmax in Wistar Han rat at 1 mg/kg, po measured for 24 hrs by LC-MS/MS analysis; type: ADME, organism-based; conditions: in vivo
[21] = Tmax in Wistar Han rat at 1 mg/kg, po measured for 24 hrs by LC-MS/MS analysis; type: ADME, organism-based; conditions: in vivo
[22] = AUC (infinity) in Wistar Han rat at 1 mg/kg, po measured for 24 hrs by LC-MS/MS analysis; type: ADME, organism-based; conditions: in vivo
[23] = Oral bioavailability in Wistar Han rat at 1 mg/kg measured for 24 hrs by LC-MS/MS analysis; type: ADME, organism-based; conditions: in vivo

T1 sequence (Q13191 whole entry, the tested form may be a part): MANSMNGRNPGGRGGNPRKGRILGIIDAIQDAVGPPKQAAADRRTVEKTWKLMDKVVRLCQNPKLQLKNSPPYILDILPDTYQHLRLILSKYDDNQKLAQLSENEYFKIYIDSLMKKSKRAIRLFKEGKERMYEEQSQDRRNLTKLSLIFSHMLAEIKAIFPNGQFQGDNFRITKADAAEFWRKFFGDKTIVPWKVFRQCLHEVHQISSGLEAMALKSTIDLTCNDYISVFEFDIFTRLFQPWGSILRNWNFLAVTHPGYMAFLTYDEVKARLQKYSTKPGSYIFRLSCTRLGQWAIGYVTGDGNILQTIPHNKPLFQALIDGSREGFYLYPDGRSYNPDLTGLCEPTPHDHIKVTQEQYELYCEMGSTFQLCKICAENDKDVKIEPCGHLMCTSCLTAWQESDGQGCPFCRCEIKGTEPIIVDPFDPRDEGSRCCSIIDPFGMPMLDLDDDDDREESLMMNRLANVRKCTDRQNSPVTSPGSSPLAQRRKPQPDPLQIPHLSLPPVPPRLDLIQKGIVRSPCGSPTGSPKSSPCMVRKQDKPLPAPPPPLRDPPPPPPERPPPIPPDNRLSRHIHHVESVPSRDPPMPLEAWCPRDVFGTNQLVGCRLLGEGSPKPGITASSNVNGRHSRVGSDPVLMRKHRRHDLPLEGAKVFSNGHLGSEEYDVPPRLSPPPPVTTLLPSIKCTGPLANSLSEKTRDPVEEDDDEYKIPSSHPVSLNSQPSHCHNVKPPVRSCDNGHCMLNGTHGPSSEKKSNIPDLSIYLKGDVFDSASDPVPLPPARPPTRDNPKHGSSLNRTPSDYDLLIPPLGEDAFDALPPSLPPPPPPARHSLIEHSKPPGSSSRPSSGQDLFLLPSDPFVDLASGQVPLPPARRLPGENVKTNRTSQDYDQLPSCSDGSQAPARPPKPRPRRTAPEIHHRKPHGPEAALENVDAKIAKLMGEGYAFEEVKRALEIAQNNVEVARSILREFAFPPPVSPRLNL

IC50 [1] | IC50 [2] | logD [3] | microsomal CLint [4] | EC50 ([5]; Homo sapiens, T-cell) | hepatocyte CLint at up to 1 µM [6] | SMILES | also measured
1.47 µM | 6.3 µM | 2.6 | 3 µL/min/mg | – | – | Cc1c[nH]c(=O)c(-c2cccc([C@]3(c4nncn4C)C[C@@H](C)C3)c2)c1 | –
0.059 µM | 0.41 µM | 2.5 | 25 µL/min/mg | 5.29 µM | – | Cn1cnnc1[C@@H](c1cccc(-c2cc(C(F)(F)F)c[nH]c2=O)c1)C1CCC1 (racemic) | –
0.084 µM | 0.58 µM | 3.58 | 2.5 µL/min/mg | – | 16 µL/min/1e6 cells | Cn1cnnc1[C@]1(c2cccc(-c3cc(C(F)(F)F)c[nH]c3=O)c2)C[C@H](C)C1 | –
> 100 µM | > 100 µM | 4.4 | 21 µL/min/mg | – | – | Cn1cnnc1[C@]1(c2cccc(-c3cc(C(F)(F)F)ccc3O)c2)C[C@H](C)C1 | –
2.68 µM | 11.6 µM | 1.5 | 9.7 µL/min/mg | – | – | COc1c[nH]c(=O)c(-c2cccc([C@]3(c4nncn4C)C[C@@H](C)C3)c2)c1 | –
0.34 µM | 2.2 µM | 2.1 | 14 µL/min/mg | 3.98 µM | – | Cn1cnnc1C1(c2cccc(-c3cc(C(F)(F)F)c[nH]c3=O)c2)CCC1 | –
0.31 µM | 1.7 µM | 2.6 | 3 µL/min/mg | – | – | Cn1cnnc1[C@]1(c2cccc(-c3cc(OC(F)(F)F)c[nH]c3=O)c2)C[C@H](C)C1 | –
0.145 µM | 0.88 µM | 2.4 | 37 µL/min/mg | 5.89 µM | 16 µL/min/1e6 cells | Cn1cc(C(F)(F)F)cc(-c2cccc([C@]3(c4nncn4C)C[C@@H](C)C3)c2)c1=O | –
0.16 µM | 0.96 µM | 1.1 | 6.8 µL/min/mg | > 30 µM | – | Cn1cnnc1C[C@]1(c2cccc(-c3cc(C(F)(F)F)c[nH]c3=O)c2)C[C@H](C#N)C1 | –

Second part, the compound before the results:

SMILES | IC50 [1] | IC50 [2] | logD [3] | microsomal CLint [4] | EC50 ([5]; Homo sapiens, T-cell) | hepatocyte CLint at up to 1 µM [6] | also measured
Cn1cnnc1[C@]1(c2cccc(-n3cc(C(F)(F)F)ccc3=O)c2)C[C@H](C)C1 | 2.1 µM | 10.3 µM | 1.6 | 15 µL/min/mg | – | – | –
Cn1cnnc1[C@]1(c2cccc(-c3nc(C(F)(F)F)c[nH]c3=O)c2)C[C@H](C)C1 | 0.89 µM | 6.55 µM | 2.1 | 15 µL/min/mg | – | – | –
Cn1cc(C(F)(F)F)c2cc(-c3cccc([C@]4(c5nncn5C)C[C@@H](C)C4)c3)c(=O)[nH]c21 | 0.19 µM | 0.86 µM | 3.8 | 83 µL/min/mg | – | – | –
Cc1nnc(Cn2cc(C(F)(F)F)cc(-c3cccc([C@]4(c5nncn5C)C[C@@H](C)C4)c3)c2=O)o1 | 0.07 µM | 0.33 µM | 1.7 | 29 µL/min/mg | 2.86 µM | 7.8 µL/min/1e6 cells | hepatocyte CLint at up to 1 µM [7]: 1.7 µL/min/1e6 cells
Cn1cc(Cn2cc(C(F)(F)F)cc(-c3cccc([C@]4(c5nncn5C)C[C@@H](C)C4)c3)c2=O)cn1 | 0.04 µM | 0.2 µM | 2.7 | 200 µL/min/mg | 3 µM | 9.7 µL/min/1e6 cells | –
Cn1cc(Cn2cc(C(F)(F)F)cc(-c3cccc([C@]4(c5nncn5C)C[C@@H](C)C4)c3)c2=O)nn1 | 0.03 µM | 0.04 µM | 2.3 | 79 µL/min/mg | 1.68 µM | 8.1 µL/min/1e6 cells | –
C[C@@H](C#N)n1cc(C(F)(F)F)cc(-c2cccc([C@]3(c4nncn4C)C[C@@H](C)C3)c2)c1=O | 0.04 µM | 0.05 µM | 2.2 | 85 µL/min/mg | 0.44 µM | 12 µL/min/1e6 cells | –
Cn1cnnc1[C@]1(c2cccc(-c3cc(C4CC4)c[nH]c3=O)c2)C[C@H](C)C1 | 0.36 µM | 1.34 µM | 2.4 | 29 µL/min/mg | – | – | –
C[C@@H](COCCC(=O)N1CCN2c3ncc(C(F)(F)F)cc3NC(=O)C2C1)Nc1cn[nH]c(=O)c1C(F)(F)F (stereo partly drawn) | – | – | – | – | – | – | IC50 [8]: 0.0307 µM; IC50 [9]: 0.0269 µM
CN1CCC(Cn2cc(C(F)(F)F)cc(-c3cccc([C@]4(c5nncn5C)C[C@@H](C)C4)c3)c2=O)CC1 | 0.074 µM | 0.46 µM | 1.3 | 47 µL/min/mg | 16.7 µM | 13 µL/min/1e6 cells | –
CC#CCn1cc(C(F)(F)F)cc(-c2cccc([C@]3(c4nncn4C)C[C@@H](C)C3)c2)c1=O | 0.034 µM | 0.16 µM | 3.3 | 76 µL/min/mg | 0.85 µM | 21 µL/min/1e6 cells | –
C[C@@H](c1cnn(C)c1)n1cc(C(F)(F)F)cc(-c2cccc([C@]3(c4nncn4C)C[C@@H](C)C3)c2)c1=O | – | – | 2.8 | 160 µL/min/mg | – | 6.4 µL/min/1e6 cells | EC50 ([5]; t-cell): 0.23 µM; hepatocyte CLint at up to 1 µM [7]: 8.7 µL/min/1e6 cells; clearance [10]: 6 L/h/kg; Vd [11]: 1.3 L/kg; half-life [12]: 18 min; Cmax [13]: 0.035 µg/mL; Tmax [14]: 4.98 min; AUC(0-inf) [15]: 0.03 µg·h/mL; bioavailability [16]: 19%; clearance [17]: 3.3 L/h/kg; Vd [18]: 1.6 L/kg; half-life [19]: 27 min; Cmax [20]: 0.021 µg/mL; Tmax [21]: 45 min; AUC(0-inf) [22]: 0.046 µg·h/mL; bioavailability [23]: 15%
C[C@H](c1cnn(C)c1)n1cc(C(F)(F)F)cc(-c2cccc([C@]3(c4nncn4C)C[C@@H](C)C3)c2)c1=O | – | – | 2.9 | 220 µL/min/mg | 0.59 µM | 21 µL/min/1e6 cells | –
Cn1cnc(Cn2cc(C(F)(F)F)cc(-c3cccc([C@]4(c5nncn5C)C[C@@H](C)C4)c3)c2=O)c1 | 0.05 µM | 0.19 µM | 2.4 | 130 µL/min/mg | 2.53 µM | 32 µL/min/1e6 cells | –
CN1CC[C@H](Cn2cc(C(F)(F)F)cc(-c3cccc([C@]4(c5nncn5C)C[C@@H](C)C4)c3)c2=O)C1 | 0.05 µM | 0.33 µM | 1.1 | 13 µL/min/mg | 10.8 µM | 2.4 µL/min/1e6 cells | –
CC#C[C@H](C)n1cc(C(F)(F)F)cc(-c2cccc([C@]3(c4nncn4C)C[C@@H](C)C3)c2)c1=O | 0.03 µM | 0.04 µM | 3.9 | 190 µL/min/mg | 0.46 µM | 24 µL/min/1e6 cells | –
